This series relates to individuals showing problems related to venous insufficiency. Kind of series: Administration of oleuropein to patients suffering from venous insufficiency (general statements). To be noted: compared with other drugs known for peripheral vascular disease symptoms.

The results in this text go back to US20080227728A1, “Therapeutic Agent for the Treatment of a Condition Associated with Peripheral Vascular Disease” (LABORATORIOS BELMAC, S.A., priority 2005, published 2008).

As for `C/C=C1/[C@H](O[C@@H]2O[C@H](CO)[C@@H](O)[C@H](O)[C@H]2O)OC=C(C(=O)OC)[C@H]1CC(=O)OCCc1ccc(O)c(O)c1` [oleuropein], the side effects entry was “do not show significant side effects”.
